In data set [1] the test system is FaDu cells. As to the kind of experiment: Apoptotic fraction by flow cytometry post-IR. In kind it is cell-based, human. The note with it: deferoxamine 5 μM pre-treatment 24 h before IR 4 Gy, 72 h post-IR. Here is the method: Flow cytometric analyses were performed on a FACSCalibur Flow Cytometer (BD Biosciences, San Jose, Calif.), equipped with FlowJo software (Tree Star, Ashland, Oreg.). Cell cycle distributions, caspase activation, and mitochondrial membrane potentials were measured as previously described. Intracellular ROS levels were quantified using the non-specific 5-(and 6-)chloromethyl-2′,7′-dichlorodihydrofluorescein diacetate (CM-H2DCFDA) dye, and the superoxide-selective dihydroethidium (DE) dye as instructed by the manufacturer (Invitrogen).
Transfected cells were immediately exposed to a continuous flow of humidified 0.2% O2 with 5% CO2 and balanced N2 (Praxair, Ontario, Canada) in an In Vivo2 400 Hypoxia Chamber (Ruskinn Technology, Pencoed, UK). An OxyLite 4000 oxygen-sensing probe (Oxford Optronix, Oxford, UK) was used to verify target O2 levels.

Data set [2] has as its system FaDu cells. As to the kind of experiment: Cell viability assay (MTS). In kind it is cell-based, human. The conditions noted are these: IR 4 Gy, 96 h post-IR, siRNA 48 h transfection, ALA 250-1000 μM 4 h. The text has this: The CeliTiter 96 AQueous One Solution Cell Proliferation Assay (3-(4,5-dimethylthiazol-2-yl)-5-(3-carboxymethoxyphenyl)-2-(4-sulfophenyl)-2H-tetrazolium, inner salt MTS (Promega, Madison, Wis.) was used to detect cell viability according to the manufacturer's specifications.

Consider deferoxamine mesylate salt, for which the siUROD-plus-IR-induced apoptosis entry with FaDu cells [1] is given as “significant suppression”.

`Cl.NCC(=O)CCC(=O)O` [ALA, δ-aminolevulinic acid hydrochloride]: the “cytotoxicity plus IR (cell viability, MTS)” value with FaDu cells [2] was “negligible effects”.

The values above are taken from patent publication US8637481B2, “Sensitizing agents for cancer therapy, methods of use and methods for the identification thereof” (University Health Network, priority 2009, dated 2014).
